Patent publication US8399416B2, “Method of using heparin binding motif for treating asthma” (National Tsing Hua University, priority 2008, dated 2013)
Where a chain is given by its changes, count along the chain named. No end group written: not given here.

Experiments:
ECP wt = target: T1, ECP wt (Homo sapiens, UniProt P12724); assay: Intrinsic tryptophan fluorescence titration of ECP wt with heparin oligosaccharides; assay type: binding; conditions: read-out: Kd, ECP wt, PBS at 25° C.
T1 construct: His6 (C); made in house; host or cells: E. coli BL21-CodonPlus (DE3)
T1 sequence (P12724 28-160): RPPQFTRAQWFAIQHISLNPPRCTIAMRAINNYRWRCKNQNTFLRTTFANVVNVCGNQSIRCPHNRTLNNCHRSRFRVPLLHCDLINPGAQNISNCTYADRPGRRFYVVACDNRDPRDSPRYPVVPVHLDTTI
Method: (§1) FIG. 5. ITFE profiles of ECP wt and mt1 with dp5. Tryptophan titration emission spectra of […] ECP wt or mt1 bound with dp5. The emission spectra at 340 nm were recorded. The resulting isotherms were fitted by nonlinear regression least-squares computer fit using the KaleidaGraph Synergy Software. ΔF, the relative fluorescence change, equals F0−Fobs, where F0 and Fobs represent the initial and observed fluorescence values, respectively.
(§2) The binding affinities of wild-type and mutant ECP for heparin oligosaccharides were subsequently monitored by intrinsic tryptophan fluorescence titration (Lau, E. K., et al. (2004) The Journal of biological chemistry 279, 22294-22305).
(§3) Binding of ECP to heparin was monitored by changes in intrinsic tryptophan fluorescence emission (IFTE). ECP (200 nM) in PBS at 25° C. was titrated with small aliquots of a high concentration of pentasaccharides with minimal dilution (<2%). Protein fluorescence measurements were recorded 2 min after each addition on a Hitachi 8000 spectrofluorimeter at emission wavelength of 340 nm using an excitation wavelength of 280 nm. ΔF, the relative fluorescence change, equals F0−Fobs, where F0 and Fobs represent the initial and observed fluorescence values, respectively. […]

ECP mt1 = target: T2, ECP mt1 (Homo sapiens, UniProt P12724, K65A/R61A/R63A/W62A); assay: Intrinsic tryptophan fluorescence titration of ECP mt1 with heparin oligosaccharides; assay type: binding; conditions: read-out: Kd, ECP mt1, PBS at 25° C.
T2 construct: recombinant mature ECP was injected into the rat circulation; His6 (C); made in house; host or cells: E. coli BL21-CodonPlus(DE3)
T2 sequence (P12724 28-160 R61A/W62A/R63A/K65A): T1 sequence (P12724 28-160) with R34A, W35A, R36A, K38A
Method: as §1
Amino acid residues R34, W35, R36, and K38 of ECP were simultaneously substituted to alanine using QuickChange site-directed mutagenesis (Stratagene, La Jolla, Calif.) and the resultant mutant was named ECP mt1. […]
as §2
Binding of ECP to heparin was monitored by changes in intrinsic tryptophan fluorescence emission (IFTE). […] Protein fluorescence measurements were recorded 2 min after each addition on a Hitachi 8000 spectrofluorimeter at emission wavelength of 340 nm using an excitation wavelength of 280 nm. ΔF, the relative fluorescence change, equals F0−Fobs, where F0 and Fobs represent the initial and observed fluorescence values, respectively. […]

C1 peptide = C1 peptide (Homo sapiens, UniProt P12724); assay: Tryptophan fluorescence titration of C1 peptide with heparin oligosaccharides; assay type: binding; conditions: read-out: Kd, C1 peptide; 1 μM peptide; tryptophan fluorescence at 340 nm
Method: FIG. 10. Titration profiles of synthetic peptides by synthetic heparin oligosaccharides. Titrations were carried out on 1 μM peptides in the presence of heparin oligosaccharides. The Kd of each peptide-oligosaccharide interaction was determined by measuring the fluorescence change of intrinsic tryptophan at 340 nm. Data were fitted to a single-binding-site curve using nonlinear least-squares analysis.
as §3

[1] = system: peri-bronchiolar and alveolar inflammation; parameters: species or system mice; conditions: mouse, in vivo
Description: FIG. 15. Tissue pathology staining in mice. 5-μm formalin-fixed lung sections were stained with H & E in (A) control (B) mIT, (C) eIN, (D) eIN+mIT, (E) mIT+eIN and (F) eIN+mIT+eIN mice. (G) Peribronchial and alveolar inflammation scores.
Animals Study protocol Female Balb/c mice 8 weeks of age were obtained from the National Laboratory Breeding Research Center in Taiwan and were raised in a specific pathogen-free environment. The mice were divided into six groups: (1) control, (2) mite intra-tracheal (mIT) alone, (3) ECP^32-41 (SEQ ID NO: 9) intranasal, (eIN) alone, (4) pre-treated group: eIN+mIT, (5) post-treated group: mIT+eIN and (6) pre+post-treated group eIN+mIT+eIN. Mite crude extract allergen (1.6 μg/μl) was prepared and well emulsified in complete Freund's adjuvant (CFA; Sigma, St Louis, Mo., USA) at a ratio of 1:1 at 4° C. The mIT, eIN and eIN+mIT groups were immunized subcutaneously with 50 μl emulsified mite protein on day 1 and day 8. […]
Histopathological analysis Lung sections stained with hematoxylin and eosin (H&E) were assigned a unit value for alveolar, peri-bronchiolar and total inflammation by computing the means of three independent scores for three randomly selected view-fields. […] Total inflammatory scores were determined as the sum of the peri-bronchiolar and alveolar inflammatory scores. […]

[2] = AMAC-labeled LMWH, increasing peptide concentrations, room temperature 15 min
Method: FIG. 9. FACE analysis of synthetic peptides. AMAC-labeled LMWH were incubated without or with increasing concentrations of C1, TAT, D1 and R1 peptides at room temperature for 15 min. Samples were loaded and separated by agarose gel electrophoresis as described for FIG. 2.
Synthetic heparin oligosaccharide (FIG. 1) (Lee, C. J., et al. (2004) J Am Chem Soc 126, 476-477), low molecular weight heparin (LMWH) and PI-88 (kindly provided by Progen Inc., Australia) were labeled with 2-aminoacridone (AMAC) as described (Calabro, A., et al. (2000) Glycobiology 10, 273-281). AMAC-oligosaccharide and proteins were incubated at room temperature for 15 min, loaded onto 1% gels and electrophoresed as described (Holmes, O., et al. (2007) J Mol Biol 367, 395-408).
In addition, because EDN contains a conventional heparin binding sequence, the corresponding peptide, D1 (SEQ ID NO: 4), was also synthesized and tested.

[3] = PBS buffer at 25° C.; HMWH 10-20 μM
Method: FIG. 11. Isothermal titration calorimetry of heparin-peptide interaction. The top panels show the differential power time course. Raw data for sequential 6-μl injections of each synthetic peptide in PBS buffer at 25° C. TAT (positive control), B, R1 (negative control), C, C1, and D, D1 into the sample cell containing 1.4 ml HMWH solution (10-20 μM). The total heat released in each injection is proportional to the area under the corresponding peak. […] The solid line represents a non-linear least squares of the reaction heat for the injection.

Beas-2B cells = conditions: biotinylated peptides, 1 h at 4° C.
Method: FIG. 7. Synthetic peptides inhibit ECP binding to cells. A, Beas-2B cells were preincubated with peptides in RPMI 1640 medium for 30 min at 4° C. before incubation with MBP-ECP for an additional 1 h. After treatment, the cells were washed with PBS and fixed with PFA. The level of bound MBP-ECP was assessed by ELISA. The amount of MBP-ECP bound to cells without peptide treatment was set to 100%. The data shown are the means of triplicate experiments. B, Beas2-B cells were incubated with biotinylated peptides for 1 h at 4° C. The amount of peptides bound to cells was assessed as for FIG. 3.
To investigate whether the RWRCK (SEQ ID NO: 8) motif is directly responsible for heparin binding, cell ELISA was conducted using a synthetic peptide, C1 (SEQ ID NO: 3), along with a positive control peptide derived from HIV-TAT, TAT (SEQ ID NO: 6) (Vives, E., et al. (1997) The Journal of biological chemistry 272, 16010-16017; Ziegler, A. and Seelig, J. (2004) Biophysical journal 86, 254-263). […] Therefore, synthetic peptides with heparin binding activity may compete with ECP for cellular binding. Furthermore, the cell surface binding ability of peptides was tested using cell ELISA assay.

[4] = system: ECP binding to Beas-2B cells; assay: Competitive inhibition of MBP-ECP binding to Beas-2B cells (cell ELISA); assay type: cell-based, human; conditions: Beas-2B cells preincubated with peptides 30 min at 4° C.
Method: FIG. 3. Heparin oligosaccharides inhibit ECP binding to cells. […] The amount of MBP-ECP bound to cells without GAG treatment was set to 100%. C, control (cells were incubated with MBP.) The data shown are the means of triplicate experiments.
FIG. 7. Synthetic peptides inhibit ECP binding to cells. […] The data shown are the means of triplicate experiments.
Beas-2B, a human bronchial epithelial cell line, was cultured in RPMI 1640 medium (Sigma-Aldrich) supplemented with heat-inactivated 10% fetal bovine serum (Gibco/Invitrogen, Carlsbad, Calif.).
The ability of MBP-ECP to bind cells in the presence of serial dilutions of oligosaccharides or peptides was determined as described (Fan, T. C., et al. (2007) Traffic 8, 1778-1795). At the present invention, synthetic heparins (dp3-9) were tested for their ability to interfere with ECP binding to Beas-2B cells. Briefly, confluent monolayers of Beas-2B cells in 96-well plates were pretreated with various concentrations of oligosaccharides or peptides in serum-free RPMI 1640 medium at 4° C. for 30 min before incubation with 5 μg/ml MBP-ECP at 4° C. for 1 h. The cells were then washed with ice-cold PBS and fixed with 2% PFA at room temperature for 15 min prior to blocking with 2% BSA/PBS at room temperature for 90 min. The level of bound MBP-ECP was quantified by ELISA analysis. MBP-ECP was detected using mouse monoclonal anti-MBP and goat anti-mouse horseradish peroxidase (HRP)-conjugated secondary antibody, followed by the enhanced chemiluminescence detection system. The amount of MBP-ECP bound to cells without oligosaccharide or peptide treatment was set to 100%.

Compound | Kd (ECP wt) [µM] | Kd (ECP mt1) [µM] | Kd (C1 peptide) [µM] | allergic airway inflammatory pathologies (H&E) [1] | interaction with LMWH (FACE) [2] | heat release on binding to HMWH (ITC) [3] | cell surface binding ability of peptides (Beas-2B cells) | binding of MBP-ECP to cell-surface HS in the presence of peptide [4]
CO[C@H]1O[C@H](COS(=O)(=O)O)[C@@H](O[C@@H]2O[C@@H](C(=O)O)[C@@H](O[C@H]3O[C@H](COS(=O)(=O)O)[C@@H](O[C@@H]4O[C@@H](C(=O)O)[C@@H](O[C@H]5O[C@H](COS(=O)(=O)O)[C@@H](O[C@@H]6O[C@@H](C(=O)O)[C@@H](O[C@H]7O[C@H](COS(=O)(=O)O)[C@@H](O[C@@H]8O[C@@H](C(=O)O)[C@@H](O[C@H]9O[C@H](COS(=O)(=O)O)[C@@H](O)[C@H](O)[C@H]9NS(=O)(=O)O)[C@H](O)[C@H]8OS(=O)(=O)O)[C@H](O)[C@H]7NS(=O)(=O)O)[C@H](O)[C@H]6OS(=O)(=O)O)[C@H](O)[C@H]5NS(=O)(=O)O)[C@H](O)[C@H]4OS(=O)(=O)O)[C@H](O)[C@H]3NS(=O)(=O)O)[C@H](O)[C@H]2OS(=O)(=O)O)[C@H](O)[C@H]1NS(=O)(=O)O [dp9] | 0.0626 | 0.4 | 0.229 |  |  |  |  | 
NYRWRCKNQN [ECP^32-41] |  |  |  | did not demonstrate allergic airway inflammatory pathologies |  |  |  | 
NYRWRCKNQNK-biotin [C1] |  |  |  |  | decreased amount of free AMAC-LMWH signal | exothermal reaction modes were clearly observed | bound to the cell surface | significantly reduced
MTQGRCKPVNK-biotin [R1] |  |  |  |  | did not bind heparin | no heat release | devoid of such function | 
YGRKKRRQRRRK-biotin [TAT] |  |  |  |  | decreased amount of free AMAC-LMWH signal | significant exothermal reaction mode | bound to the cell surface | significantly reduced
